Consider 40 molecules from patent publication US20150094294A1, “COMPOUNDS AND METHODS FOR TREATING MALARIA” (Cellceutix Corporation, priority 2012, published 2015).

In brackets after ≈: the same amount, converted by molar mass.

What all share (assay type): cell-based
The test system of data set [1] is P. falciparum 3D7 (chloroquine-sensitive). The data set is described as follows: Anti-malarial activity, P. falciparum 3D7 culture, 72 hour, DNA content by flow cytometry. Conditions: synchronized ring-stage parasites. In short, it runs like this:
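Magnet-synchronized ring-stage parasites in RPMI 1640/Albumax II were plated at 0.5% parasitemia, 4% final hematocrit, with compound added as 2× dilutions (2.5 μM to 20 nM) for 72 h. Fixed, Triton-permeabilized cells were stained with SYTOX Green (5 μM final), and DNA content was measured by flow cytometry to derive IC50.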

Data set [2] concerns P. falciparum DD2 (chloroquine-resistant). Put plainly: Anti-malarial activity, P. falciparum DD2 culture, 72 hour, DNA content by flow cytometry. Conditions: synchronized ring-stage parasites. Here is the method: Numerous compounds were screened in cultures of the malaria parasite P. falciparum 3D7 (chloroquine-sensitive) and DD2 (chloroquine-resistant). The compounds were also screened for toxixcity against 3T3 cells, HepG2 cells, and in a hemolysis assay. In brief, P. falciparum parasites were cultured in RPMI 1640 (Invitrogen) supplemented with Albumax II (Invitrogen). For synchronization, schizont stage parasites were magnet purified using a SuperMACS™ II Cell Separation Unit (Miltenyi Biotech). For IC50 determinations, synchronized ring-stage parasites were plated at 0.5% parasitemia and 8% hematocrit in 96-well plates at a total volume of 50 μL. Serial dilutions of 2× concentration of the respective compound, ranging from 2.5 μM to 20 nM, were added to the wells to bring the total volume up to 100 μL and 4% hematocrit. Compounds were assayed for a 72 hour period, after which the cultures were fixed with a solution of 4% paraformaldehyde and 0.08% glutaraldhyde in PBS. The cells were then permeabilized with 0.25% Triton X-100, and SYTOX Green Nucleic Acid Stain (Invitrogen) in PBS was added to a final concentration of 5 μM. DNA content, as an indicator of parasitemia, was analyzed on an Accuri C6 Flow Cytometer with C-Sampler. IC50 curves were generated using GraphPad Prism (GraphPad Software).
In general terms: Flow cytometry measures light scatter and fluorescence of single cells or particles in a stream.

The nature of data set [3]: in vitro.
For data set [4], the system named is 3T3 cells. Put plainly: Cytotoxicity against 3T3 cells.
Data set [5] relates to HepG2 cells. Put plainly: Cytotoxicity against HepG2 cells.
Setting [6] is: Plasmodium falciparum, 3D7, 72 h.

For the molecule `CC(=O)Nc1cc(C(C)(C)C)cc(NC(=O)c2cccc(C(=O)Nc3cc(C(C)(C)C)cc(NC(C)=O)c3SCCN)c2)c1SCCN` [Compound 108], the figures for the IC50 in data set [1] and in data set [2] were 0.306 µM and 0.419 µM, respectively.
For `CC(C)(C)c1cc(NC(=O)c2cccc(C(=O)Nc3cc(C(C)(C)C)cc(NC(=O)C(N)Cc4ccccc4)c3SCCN)c2)c(SCCN)c(NC(=O)C(N)Cc2ccccc2)c1` (centres unmarked) [Compound 109] the same measures were 0.438 µM and 0.601 µM.
As for `CC(C)(C)c1cc(N)c(SCCN)c(NC(=O)c2cccc(C(=O)Nc3cc(C(C)(C)C)cc(N)c3SCCN)c2)c1` [Compound 110], the IC50 (usually the concentration that gives 50% inhibition) came to 0.563 µM in data set [1] and 0.74 µM in data set [2].
`NCCOc1c(N)cc(C(F)(F)F)cc1NC(=O)c1cccc(C(=O)Nc2cc(C(F)(F)F)cc(N)c2OCCN)c1` [Compound 112]: the half-inhibitory concentration (IC50) in data set [1] came to 0.653 µM; in data set [2], 0.993 µM.
Consider `CC(C)(C)c1cc(N)c(SCCCC(=N)N)c(NC(=O)c2cccc(C(=O)Nc3cc(C(C)(C)C)cc(N)c3SCCCC(=N)N)c2)c1` [Compound 113], for which the values for the concentration for half-maximal inhibition (IC50) in data set [1] and in data set [2] were 0.668 µM and 0.611 µM, respectively.
The corresponding values for `CN(CCCCC(=O)Nc1cc(C(C)(C)C)cc(NC(=O)c2cccc(C(=O)Nc3cc(C(C)(C)C)cc(NC(=O)CCCCN(C)c4ccccn4)c3SCCN)c2)c1SCCN)c1ccccn1` [Compound 118] are 0.74 µM and 1.15 µM.
Take `N=C(N)NCCCCC(=O)Nc1cc(C(F)(F)F)cc(NC(=O)c2cc(C(=O)Nc3cc(C(F)(F)F)cc(NC(=O)CCCCNC(=N)N)c3SCCN)[nH]n2)c1SCCN` [Compound 119]: the figures for the IC50 in data set [1] and in data set [2] were 0.87 µM and 0.688 µM, respectively.
As for `N=C(N)NCCSc1ccc(NC(=O)Nc2ccc(SCCN)c(C(F)(F)F)c2)cc1C(F)(F)F` [Compound 130], the midpoint of inhibition in data set [2], the IC50, lay at 0.976 µM.
As to `FC(F)(F)c1cc(NC2CCNCC2)ccc1Oc1ccc(Oc2ccc(NC3CCCNC3)cc2C(F)(F)F)cc1` (centres unmarked) [Compound 165], the IC50 in data set [1] (setting [6]) is 0.904 µM; in data set [2] (Plasmodium falciparum), 1.18 µM. Also, the midpoint of the response in data set [3], the EC50, lay at 16 µg/mL (≈ 26.9 µM).
For `CC(=O)NCCSc1c(NC(=O)CCCCNC(=N)N)cc(Br)cc1NC(=O)c1cc(C(=O)Nc2cc(Br)cc(NC(=O)CCCCNC(=N)N)c2SCCNC(C)=O)ncn1` [Compound 169] the same measures were 0.317 µM, 0.15 µM and 210 µg/mL (≈ 205 µM).
As to `COC(=O)CCSc1c(NC(=O)CCCCNC(=N)N)cc(C(F)(F)F)cc1NC(=O)c1cc(C(=O)Nc2cc(C(F)(F)F)cc(NC(=O)CCCCNC(=N)N)c2SCCC(=O)OC)ncn1` [Compound 171], the results for the IC50 in data set [1] (setting [6]) and in data set [2] (Plasmodium falciparum) were 0.893 µM and 0.524 µM, respectively.
Consider `N=C(N)NCCCOc1cccc(-c2ccc(-c3cccc(OCCCNC(=N)N)c3)s2)c1` [Compound 244], for which the EC50 (usually the concentration needed to bring the measured effect to its halfway point) came to 20 µM in data set [4] and 19 µM in data set [5]. For the same molecule, in data set [1], half-maximal inhibition (IC50) was put at 0.149 µM.
The corresponding values for `Cn1c(-c2cccc(CCN)c2)cnc1-c1cccc(CCN)c1` [Compound 245] are more than 1000 µM, more than 1000 µM and 0.541 µM.
For `Cn1c(-c2cccc(CCNC(=N)N)c2)cnc1-c1cccc(CCNC(=N)N)c1` [Compound 246] the same measures were more than 1000 µM, more than 1000 µM and 0.005 µM.
As for `NCCc1ccc(-c2ccc(-c3ccc(CCN)cc3)s2)cc1` [Compound 247], the concentration for a half-maximal effect (EC50) in data set [4] was less than 14 µM; in data set [5] it was 74 µM. The same molecule had a half-maximal inhibitory concentration (IC50) in data set [1] of 0.034 µM.
For `NCCc1ccccc1-c1ccc(-c2ccccc2CCN)s1` [Compound 249] the same measures were 7 µM, 46 µM and 0.028 µM.
For `NCCc1cccc(-c2cn(-c3cccc(CCN)c3)nn2)c1` [Compound 250] the same measures were more than 1000 µM, more than 1000 µM and 0.556 µM.
As for `N=C(N)NCCc1ccccc1-c1ccc(-c2ccccc2CCNC(=N)N)s1` [Compound 251], the figures for the EC50 in data set [4] and in data set [5] were 559 µM and 692 µM, respectively. In data set [1], this molecule came in with an IC50 of 0.012 µM.
For `N=C(N)NCCc1cccc(-c2cn(-c3cccc(CCNC(=N)N)c3)nn2)c1` [Compound 256] the same measures were more than 1000 µM, more than 1000 µM and 0.059 µM.
The corresponding values for `CN1CCN(c2ccc(-c3ccc(-c4ccc(N5CCN(C)CC5)cc4)s3)cc2)CC1` [Compound 260] are more than 1000 µM, more than 1000 µM and more than 0.1 µM.
For `Cn1c(-c2ccc(CCCN)cc2)cnc1-c1ccc(CCCN)cc1` [Compound 265] the same measures were more than 1000 µM, more than 1000 µM and more than 0.1 µM.
Consider `N=C(N)NCCCc1ccc(-c2ccc(-c3ccc(CCCNC(=N)N)cc3)s2)cc1` [Compound 266], for which the 50% effective concentration (EC50) came out at 38 µM in data set [4] and 197 µM in data set [5]. Further, half-maximal inhibition in data set [1] (IC50) was put at 0.059 µM.
The corresponding values for `Cn1c(-c2ccc(CCCNC(=N)N)cc2)cnc1-c1ccc(CCCNC(=N)N)cc1` [Compound 267] are 651 µM, 823 µM and 0.029 µM.
For `O=C(Nc1ccc(SCCNC2=NCCN2)c(C(F)(F)F)c1)Nc1ccc(SCCNC2=NCCN2)c(C(F)(F)F)c1` [Compound 268] the same measures were 74 µM, 447 µM and 0.087 µM.
The corresponding values for `N=C(N)NCCc1cccc(NC(=O)Nc2cccc(CCNC(=N)N)c2)c1` [Compound 269] are more than 1000 µM, more than 1000 µM and 0.32 µM.
Take `N=C(N)N1CCC(Oc2ccc(NC(=O)Nc3ccc(OC4CCN(C(=N)N)C4)c(C(F)(F)F)c3)cc2C(F)(F)F)C1` (centres unmarked) [Compound 271]: the concentration for a half-maximal effect (EC50) in data set [4] stood at 172 µM; in data set [5], 347 µM. The half-inhibitory concentration (IC50) in data set [1] turned out to be 0.029 µM.
As for `N=C(N)NCCSc1ccc(NC(=O)Nc2ccc(OC3CCN(C(=N)N)C3)c(C(F)(F)F)c2)cc1C(F)(F)F` (centres unmarked) [Compound 272], the figures for the EC50 in data set [4] and in data set [5] were 65 µM and 214 µM, respectively. The molecule also showed an IC50 in data set [1] of 0.038 µM.
The corresponding values for `NCCCSc1ccc(NC(=O)Nc2ccc(SCCCN)c(C(F)(F)F)c2)cc1C(F)(F)F` [Compound 274] are 72 µM, 164 µM and more than 2 µM.
Regarding `N=C(N)NCCSc1ccc(NC(=O)Nc2ccc(SCCCN)c(C(F)(F)F)c2)cc1C(F)(F)F` [Compound 275], the EC50 in data set [4] amounted to 124 µM; in data set [5] it was 342 µM. This molecule also gave an IC50 in data set [1] of 1.7 µM.
In the case of `COc1cc(SCCN)c(C(F)(F)F)cc1NC(=O)Nc1cc(C(F)(F)F)c(SCCN)cc1OC` [Compound 277], the EC50 came out at 31 µM in data set [4] and 64 µM in data set [5]. In data set [1], this molecule returned a half-maximal inhibitory concentration (IC50) of 0.57 µM.
For `CC1(C)c2cc(-c3cccc(CCN)c3)ccc2-c2ccc(-c3cccc(CCN)c3)cc21` [Compound 281] the same measures were 2 µM, 5 µM and more than 0.1 µM.
The corresponding values for `CCn1c2ccc(C3=CCNCC3)cc2c2cc(C3=CCNCC3)ccc21` [Compound 282] are 57 µM, 126 µM and more than 0.1 µM.
For `CCn1c2ccc(C3CCNCC3)cc2c2cc(C3CCNCC3)ccc21` [Compound 283] the same measures were 153 µM, 284 µM and more than 0.1 µM.
Consider `CCn1c2ccc(C3CCN(C(=N)N)CC3)cc2c2cc(C3CCN(C(=N)N)CC3)ccc21` [Compound 285], for which the 50% effective concentration (EC50) in data set [4] amounted to 587 µM; in data set [5], 815 µM. In addition, the half-inhibitory concentration (IC50) in data set [1] came to 0.086 µM.
For `N=C(N)N1CC=C(c2ccc3sc4ccc(C5=CCN(C(=N)N)CC5)cc4c3c2)CC1` [Compound 286] the same measures were 83 µM, 221 µM and 0.08 µM.
The corresponding values for `CCn1c2ccc(C3=CCN(C(=N)N)CC3)cc2c2cc(C3=CCN(C(=N)N)CC3)ccc21` [Compound 287] are 84 µM, 200 µM and more than 0.1 µM.
As for `N=C(N)NCCCn1c2ccc(C3=CCN(C(=N)N)CC3)cc2c2cc(C3=CCN(C(=N)N)CC3)ccc21` [Compound 289], the results for the EC50 in data set [4] and in data set [5] were 248 µM and 425 µM, respectively. This molecule came in with an IC50 in data set [1] of more than 0.1 µM.
The corresponding values for `c1cc2sc3ccc(N4CCNCC4)cc3c2cc1N1CCNCC1` [Compound 291] are 345 µM, 410 µM and more than 0.1 µM.
For `CCn1c2ccc(N3CCNCC3)cc2c2cc(N3CCNCC3)ccc21` [Compound 293] the same measures were 469 µM, more than 1000 µM and more than 0.1 µM.
Consider `NCCSc1c(NC(=O)c2cc(C(=O)Nc3cc(C(F)(F)F)cc(NC(=O)c4cccs4)c3SCCN)ncn2)cc(C(F)(F)F)cc1NC(=O)c1cccs1` [Compound 311], for which the concentration for a half-maximal effect (EC50) in data set [4] and in data set [5] was 923 µM throughout. The molecule also had a 50% inhibitory concentration (IC50) in data set [1] of more than 0.1 µM.
